Test results taken from patent US7659270B2, “Hepatitis C virus inhibitors” (Bristol-Myers Squibb Company, priority 2006, dated 2010).
Like-named read-outs stand apart in the source and are kept apart here.

Test system: HCV 1b-377-neo replicon cells
Assay: HCV replicon assay (HCV 1b-377-neo replicon cells)
Assay type: cell-based, Hepatitis C virus genotype 1b
Settings: read-out: EC50 range against HCV 1b (Range)
Summary of the method: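 HCV genotype 1b (1b-377-neo) replicon cells, run as a validated replicon assay; parallel testing in replicon cells carrying the NS5A Y2065H resistance mutation.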

Row | Structure (SMILES) | EC50 (Hepatitis C virus) [nM] | EC50 [nM]
1 | CN(C)[C@@H](C(=O)N1CCC[C@H]1c1ncc(-c2ccc(-c3cnc(-c4cnc([C@@H]5CCCN5C(=O)[C@@H](c5ccccc5)N(C)C)[nH]4)cn3)cc2)[nH]1)c1ccccc1 [Example 152j-7, (1R)-2-((2S)-2-(5-(5-(4-(2-((2S)-1-((2R)-2-(dimethylamino)-2-phenylacetyl)-2-pyrrolidinyl)-1H-imidazol-5-yl)phenyl)-2-pyrazinyl)-1H-imidazol-2-yl)-1-pyrrolidinyl)-N,N-dimethyl-2-oxo-1-phenylethanamine] | 1 to 99 | –
2 | CCN(CC)[C@@H](C(=O)N1CCC[C@H]1c1ncc(-c2ccc(-c3ncc(-c4c[nH]c([C@@H]5CCCN5C(=O)[C@@H](NC(=O)OC)C(C)C)n4)cn3)cc2)[nH]1)c1ccccc1 [Example D76, methyl ((1S)-1-(((2S)-2-(5-(2-(4-(2-((2S)-1-((2R)-2-(diethyl-amino)-2-phenyl-acetyl)-2-pyrroli-dinyl)-1H-imidazol-5-yl)phenyl)-5-pyrimi-dinyl)-1H-imida-zol-2-yl)-1-pyrroli-dinyl)carbon-yl)-2-methylpro-pyl)carba-mate] | 0.01 to 0.999 | –
3 | COC(=O)N[C@@H](C(=O)N1CCC[C@H]1c1ncc(-c2ccc(-c3ccc(-c4cnc([C@@H]5CCCN5C(=O)[C@@H](c5ccccc5)N(C)C)[nH]4)cn3)cc2)[nH]1)c1ccccc1 [Example 140, methyl((1R)-2-((2S)-2-(5-(4-(5-(2-((2S)-1-((2R)-2-(dimethylamino)-2-phenylacetyl)-2-pyrrolidinyl)-1H-imidazol-5-yl)-2-pyridinyl)phenyl)-1H-imidazol-2-yl)-1-pyrrolidinyl)-2-oxo-1-phenylethyl)carbamate] | 0.01 to 0.999 | –
4 | C[C@@H](c1ncc(-c2ccc(-c3ccc(-c4cnc([C@H](C)N(C)C(=O)[C@@H](c5ccccc5)N(C)C)[nH]4)cc3)cc2)[nH]1)N(C)C(=O)[C@@H](c1ccccc1)N(C)C [Example 24-18-2, (2R,2′R)-N,N′-(4,4′-biphenyl-diylbis(1H-imidazole-5,2-diyl(1S)-1,1-ethane-diyl))bis(2-(dimethyl-amino)-N-methyl-2-phenyl-acetamide)] | 0.01 to 0.999 | –
5 | COC(=O)N[C@@H](C(=O)N1CCC[C@H]1c1ncc(-c2ccc(-c3ccc(-c4cnc([C@@H]5CCCN5C(=O)Cc5cccnc5)[nH]4)cn3)cc2)[nH]1)c1ccccc1 [Example 143, methyl ((1R)-2-oxo-1-phenyl-2-((2S)-2-(5-(4-(5-(2-((2S)-1-(3-pyridinylacetyl)-2-pyrrolidinyl)-1H-imidazol-5-yl)-2-pyridinyl)phenyl)-1H-imidazol-2-yl)-1-pyrrolidinyl)ethyl)carbamate] | 0.01 to 0.999 | –
6 | COC(=O)N[C@H](C(=O)N1CCC[C@H]1c1ncc(-c2cnc(-c3ccc(-c4[nH]c([C@@H]5CCCN5C(=O)[C@@H](NC(=O)OC)C5CC5)nc4C(F)(F)F)cc3)nc2)[nH]1)C1CC1 [Example J49, methyl ((1S)-1-cyclopropyl-2-((2S)-2-(5-(4-(5-(2-((2S)-1-((2S)-2-cyclopropyl-2-((methoxy-carbonyl)amino)acetyl)-2-pyrrolidinyl)-1H-imidazol-5-yl)-2-pyrimi-dinyl)phenyl)-4-(trifluoromethyl)-1H-imida-zol-2-yl)-1-pyrrolidinyl)-2-oxoeth-yl)carbamate] | 0.01 to 0.999 | –
7 | COC(=O)N[C@@H](C(=O)N(C)[C@@H](C)c1ncc(-c2ccc(-c3ncc(-c4cnc([C@@H]5CCCN5C(=O)[C@H](NC(=O)OC)c5ccccc5)[nH]4)cn3)cc2)[nH]1)c1ccccc1 [Example 152j-21, methyl ((1R)-2-((2S)-2-(5-(2-(4-(2-((1S)-1-(((2R)-2-((methoxycarbonyl)a-mino)-2-phenylacetyl)(methyl)amino)ethyl)-1H-imidazol-5-yl)phenyl)-5-pyrimidinyl)-1H-imidazol-2-yl)-1-pyrrolidinyl)-2-oxo-1-phenylethyl)carbamate] | 0.01 to 0.999 | –
8 | COC(=O)N[C@@H](C(=O)N1CCC[C@H]1c1ncc(-c2ccc(-c3ccc(-c4cnc([C@@H]5CCCN5C(=O)[C@H]5CCCO5)[nH]4)cn3)cc2)[nH]1)c1ccccc1 [Example 141, methyl ((1R)-2-oxo-1-phenyl-2-((2S)-2-(5-(4-(5-(2-((2S)-1-((2R)-tetrahydro-2-furanylcarbonyl)-2-pyrrolidinyl)-1H-imidazol-5-yl)-2-pyridinyl)phenyl)-1H-imidazol-2-yl)-1-pyrrolidinyl)ethyl)carbamate] | 0.01 to 0.999 | –
9 | COC(=O)N[C@@H](C(=O)N[C@@H](C)c1ncc(-c2ccc(-c3ccc(-c4cnc([C@H](C)NC(=O)[C@H](NC(=O)OC)c5ccccc5)[nH]4)cn3)nc2)[nH]1)c1ccccc1 [Example 153c-7, dimethyl (2,2′-bipyridine-5,5′-diylbis (1H-imidazole-5,2-diyl (1S)-1,1-ethanediyl-imino((1R)-2-oxo-1-phenyl-2,1-ethane-diyl)))biscarba-mate] | 1 to 99 | –
10 | COC(=O)N[C@@H](C)C(=O)N(C)[C@@H](C)c1ncc(-c2ccc(-c3ccc(-c4[nH]c([C@@H]5CCCN5C(=O)[C@H](C)NC(=O)OC)nc4C(F)(F)F)cc3)cc2)[nH]1 [Example J42.a, methyl ((1S)-2-((2S)-2-(5-(4′-(2-((1S)-1-((N-(methoxy-carbonyl)-L-alanyl)(meth-yl)ami-no)ethyl)-1H-imidazol-5-yl)-4-biphenylyl)-4-(trifluoromethyl)-1H-imida-zol-2-yl)-1-pyrrolidinyl)-1-methyl-2-oxoeth-yl)carbamate] | 0.01 to 0.999 | –
11 | CNCC(=O)N1CCC[C@H]1c1ncc(-c2ccc(-c3ccc(-c4cnc([C@@H]5CCCN5C(=O)[C@@H](NC(=O)OC)C(C)C)[nH]4)cc3)cc2)[nH]1 [LS20] | – | 0.01 to 0.999
12 | COC(=O)N[C@@H](C(=O)N[C@@H](C)c1ncc(-c2ccc(-c3ncc(-c4cnc([C@@H]5CCCN5C(=O)[C@H](NC(=O)OC)c5ccccc5)[nH]4)cn3)cc2)[nH]1)c1ccccc1 [Example 152j-15, methyl ((1R)-2-((2S)-2-(5-(2-(4-(2-((1S)-1-(((2R)-2-((methoxycarbonyl)a-mino)-2-phenyl-acetyl)amino)eth-yl)-1H-imidazol-5-yl)phenyl)-5-pyrimidinyl)-1H-imidazol-2-yl)-1-pyrrolidinyl)-2-oxo-1-phenylethyl)carbamate] | 0.01 to 0.999 | –
13 | COC(=O)N[C@@H](C(=O)N[C@@H](C)c1ncc(-c2ccc(-c3ccc(-c4cnc([C@@H]5CCCN5C(=O)[C@H](NC(=O)OC)c5ccccc5)[nH]4)cn3)cc2)[nH]1)c1ccccc1 [Example 152j-12, methyl ((1R)-2-((2S)-2-(5-(6-(4-(2-((1S)-1-(((2R)-2-((methoxycarbonyl)a-mino)-2-phenyl-acetyl)amino)eth-yl)-1H-imidazol-5-yl)phenyl)-3-pyridinyl)-1H-imidazol-2-yl)-1-pyrrolidinyl)-2-oxo-1-phenylethyl)carbamate] | 0.01 to 0.999 | –
14 | CN(C)[C@@H](C(=O)N1CCC[C@H]1c1ncc(-c2ccc(-c3ccc(-c4cnc([C@@H]5CCCN5C(=O)[C@@H](c5ccccc5)N(C)C)[nH]4)cn3)cc2)[nH]1)c1ccccc1 [Example 132, (1R)-2-((2S)-2-(5-(6-(4-(2-((2S)-1-((2R)-2-(dimethylamino)-2-phenylacetyl)-2-pyrrolidinyl)-1H-imidazol-5-yl)phenyl)-3-pyridinyl)-1H-imidazol-2-yl)-1-pyrrolidinyl)-N,N-dimethyl-2-oxo-1-phenylethanamine] | 0.01 to 0.999 | –
15 | COC(=O)NC(C(=O)N1CCC[C@H]1c1ncc(-c2cnc(-c3ccc(-c4[nH]c([C@@H]5CCCN5C(=O)C(NC(=O)OC)c5ccccc5)nc4C(F)(F)F)cc3)nc2)[nH]1)c1ccccc1 (stereo partly drawn) [Example J46, methyl ((1R)-2-((2S)-2-(5-(4-(5-(2-((2S)-1-((2R)-2-((methoxy-carbonyl)amino)-2-phenylacetyl)-2-pyrrolidinyl)-1H-imidazol-5-yl)-2-pyrimi-dinyl)phenyl)-4-(trifluoromethyl)-1H-imida-zol-2-yl)-1-pyrrolidinyl)-2-oxo-1-phenyleth-yl)carbamate] | 0.01 to 0.999 | –
16 | CN(C)[C@@H](C(=O)N1CCC[C@H]1c1ncc(-c2ccc(-c3ncc(-c4cnc([C@@H]5CCCN5C(=O)[C@@H](c5ccccc5)N(C)C)[nH]4)cn3)cc2)[nH]1)c1ccccc1 [Example 152j-1, (1R)-2-((2S)-2-(5-(2-(4-(2-((2S)-1-((2R)-2-(dimethylamino)-2-phenylacetyl)-2-pyrrolidinyl)-1H-imidazol-5-yl)phenyl)-5-pyrimidinyl)-1H-imidazol-2-yl)-1-pyrrolidinyl)-N,N-dimethyl-2-oxo-1-phenylethanamine] | 1 to 99 | –
17 | COC(=O)N[C@@H](C(=O)N1CCC[C@H]1c1ncc(-c2cnc(-c3ncc(-c4cnc([C@@H]5CCCN5C(=O)[C@H](NC(=O)OC)c5ccccc5)[nH]4)cn3)nc2)[nH]1)c1ccccc1 [Example 153c-4, dimethyl (2,2′-bipyrimi-dine-5,5′-diylbis(1H-imi-dazole-5,2-diyl (2S)-2,1-pyrrolidine-diyl((1R)-2-oxo-1-phe-nyl-2,1-ethane-diyl)))biscarba-mate] | 1000 to 10000 | –
18 | COC(=O)N[C@@H](C(=O)N1CCC[C@H]1c1ncc(-c2ccc(-c3ccc(-c4cnc([C@@H]5CCCN5C(=O)Cc5cccnc5)[nH]4)cc3C)cc2)[nH]1)c1ccccc1 [Example 127, methyl ((1R)-2-((2S)-2-(5-(2′-methyl-4′-(2-((2S)-1-(3-pyridinylacetyl)-2-pyrrolidinyl)-1H-imidazol-5-yl)-4-biphenylyl)-1H-imidazol-2-yl)-1-pyrrolidinyl)-2-oxo-1-phenylethyl)carbamate] | 0.01 to 0.999 | –
19 | COC(=O)N[C@@H](C(=O)N1CCC[C@H]1c1ncc(-c2ccc(-c3ccc(-c4cnc([C@@H]5CCCN5C(=O)Cc5ccccc5)[nH]4)cc3)cc2)[nH]1)c1ccccc1 [Example 28, methyl((1R)-2-oxo-1-phenyl-2-((2S)-2-(5-(4′-(2-((2S)-1-(phenylacetyl)-2-pyrrolidinyl)-1H-imidazol-5-yl)-4-biphenylyl)-1H-imidazol-2-yl)-1-pyrrolidinyl)ethyl)carbamate] | 1 to 99 | –
